Source: patent US20240393292A1, “ALLERGY ANTIGEN AND EPITOPE THEREOF” (HOYU CO., LTD., priority 2019, published 2024)

Test system: IgE antibodies from patients
Assay: Wheat epitope mapping (2): overlapping 10-amino-acid peptide fragments shifted by one amino acid;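 for Rank of partial sequence as epitope binding to IgE antibody: key = sequence deemed particularly important within the common 15-residue sequence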;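 for epitope sequence binding to IgE antibody, rank (Key/Preferably/More preferably): key of grades: preferably = shorter partial sequence still acting as epitope; more preferably = sequence improving IgE binding; key = particularly important sequence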
Assay type: binding, human
In short: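 Cellulose-bound 10-mer peptides offset by one residue were probed with patient serum IgE and detected by chemiluminescence. Secondary-antibody-only signals were subtracted per peptide. Residual binding was expressed as % of the parent overlapping peptide, scored as none (<30%), poor (30–<50%), somewhat poor (50–<70%) or retained (≥70%).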

[1] = serum of patient P3 (WDEIA), sequence without X
[2] = serum of patient P53 (child, general immediate type allergy to wheat), sequence without X
[3] = serum of patient P20 (WDEIA), sequence without X
[4] = serum of patient P26 (WDEIA), sequence without X
[5] = serum of patient P21 (WDEIA), sequence without X
[6] = serum of patient P33 (WDEIA), sequence without X
[7] = serum of patient P36 (WDEIA), sequence without X

2725 (YKIGG; REGION 1..5: note = epitope) [compound 2725]
Epitope sequence binding to IgE antibody, rank of the sequence (serum of patient P27 (WDEIA), partial sequence): Preferably

1303 (INVEN; REGION 1..5: note = epitope) [compound 1303]
Epitope sequence binding to IgE antibody, rank of the sequence [1]: Preferably

1332 (SINVEN; REGION 1..6: note = epitope) [compound 1332]
Epitope sequence binding to IgE antibody, rank of the sequence (serum of patient P22 (WDEIA), sequence without X): Preferably

2292 (KRVIERFEK; REGION 1..9: note = epitope) [compound 2292]
Epitope sequence binding to IgE antibody, rank of the sequence (Key/Preferably/More preferably) (serum of patient P34 (WDEIA), sequence without X): Preferably

1734 (KEAANFT; REGION 1..7: note = epitope) [compound 1734]
epitope sequence binding to IgE antibody, rank (Key/Preferably/More preferably) (serum of patient P56 (child, general immediate type allergy to wheat)): Preferably

1688 (KEAA; REGION 1..4: note = epitope) [compound 1688]
Rank of partial sequence as epitope binding to IgE antibody (serum of patient P14 (WDEIA), sequence without X): Key

1656 (NPDKVPFV; REGION 1..8: note = epitope) [compound 1656]
Rank of partial sequence as epitope binding to IgE antibody [2]: Key

1898 (QQFPGQQQ; REGION 1..8: note = epitope) [compound 1898]
epitope sequence binding to IgE antibody, rank (Key/Preferably/More preferably) (serum of patient P2 (WDEIA)): Key

2242 (IRNYRVAI; REGION 1..8: note = epitope) [compound 2242]
Epitope sequence binding to IgE antibody, rank of the sequence (Key/Preferably/More preferably) (serum of patient P35 (WDEIA), sequence without X): Key

2713 (KIGG; REGION 1..4: note = epitope) [compound 2713]
Epitope sequence binding to IgE antibody, rank of the sequence (serum of patient P17 (WDEIA), partial sequence): Key

1411 (QQPISQQQAQ; REGION 1..10: note = epitope) [compound 1411]
Epitope sequence binding to IgE antibody, rank of the sequence [1]: Preferably

1870 (YTVRTLQR; REGION 1..8: note = epitope) [compound 1870]
epitope sequence binding to IgE antibody, rank (Key/Preferably/More preferably) (serum of patient P29 (WDEIA)): Preferably

1942 (QQFPGQQ; REGION 1..7: note = epitope) [compound 1942]
epitope sequence binding to IgE antibody, rank (Key/Preferably/More preferably) (serum of patient P21 (WDEIA)): Preferably

1677 (PFVPISG; REGION 1..7: note = epitope) [compound 1677]
Rank of partial sequence as epitope binding to IgE antibody (serum of patient G5 (adult, general immediate type allergy to wheat), sequence without X): Key

1580 (QPFPQTQQPQ; REGION 1..10: note = epitope) [compound 1580]
Rank of partial sequence as epitope binding to IgE antibody [3]: Further preferably

1339 (INVEN; REGION 1..5: note = epitope) [compound 1339]
Epitope sequence binding to IgE antibody, rank of the sequence (serum of patient P32 (WDEIA), sequence without X): Preferably

1241 (PIQQQP; REGION 1..6: note = epitope) [compound 1241]
Epitope sequence binding to IgE antibody, rank of the sequence [4]: Key

1714 (KEAANF; REGION 1..6: note = epitope) [compound 1714]
epitope sequence binding to IgE antibody, rank (Key/Preferably/More preferably) (serum of patient P35 (WDEIA)): Preferably

1894 (VRTLQ; REGION 1..5: note = epitope) [compound 1894]
epitope sequence binding to IgE antibody, rank (Key/Preferably/More preferably) (serum of patient G9 (adult, general immediate type allergy to wheat)): Key

2518 (PSQLNPQ; REGION 1..7: note = epitope) [compound 2518]
Epitope sequence binding to IgE antibody, rank of the sequence (serum of patient P53 (child, general immediate type allergy to wheat), partial sequence): Preferably

1690 (EAANFT; REGION 1..6: note = epitope) [compound 1690]
Rank of partial sequence as epitope binding to IgE antibody (serum of patient P16 (WDEIA), sequence without X): Key

2376 (AYVTEIV; REGION 1..7: note = epitope) [compound 2376]
Epitope sequence binding to IgE antibody, rank of the sequence (Key/Preferably/More preferably) (serum of patient P27 (WDEIA), sequence without X): Preferably

2296 (GIDK; REGION 1..4: note = epitope) [compound 2296]
Epitope sequence binding to IgE antibody, rank of the sequence (Key/Preferably/More preferably/Further preferably) (serum of patient P50 (child, general immediate type allergy to wheat), sequence without X): Key

2692 (YKGPTL; REGION 1..6: note = epitope) [compound 2692]
Epitope sequence binding to IgE antibody, rank of the sequence (serum of patient P33 (WDEIA), partial sequence): Key

1447 (QQPISQQQ; REGION 1..8: note = epitope) [compound 1447]
Rank of partial sequence as epitope binding to IgE antibody [5]: Key

1749 (EAANFT; REGION 1..6: note = epitope) [compound 1749]
epitope sequence binding to IgE antibody, rank (Key/Preferably/More preferably) (serum of patient G6 (adult, general immediate type allergy to wheat)): Key

1405 (YLQPQQPISQ; REGION 1..10: note = epitope) [compound 1405]
Epitope sequence binding to IgE antibody, rank of the sequence (Key/Preferably/More preferably/Further preferably) (serum of patient P2 (WDEIA), sequence without X): Key

1249 (QQPIQQQP; REGION 1..8: note = epitope) [compound 1249]
Epitope sequence binding to IgE antibody, rank of the sequence [6]: Key

2558 (QSTYQLVQQL; REGION 1..10: note = epitope) [compound 2558]
Epitope sequence binding to IgE antibody, rank of the sequence (serum of patient P21 (WDEIA), partial sequence): Key

1563 (QVPLVQQQQ; REGION 1..9: note = epitope) [compound 1563]
Rank of partial sequence as epitope binding to IgE antibody (serum of patient G7 (adult, general immediate type allergy to wheat), sequence without X): Preferably

2285 (GIDK; REGION 1..4: note = epitope) [compound 2285]
Epitope sequence binding to IgE antibody, rank of the sequence (Key/Preferably/More preferably) [4]: Key

1793 (SGKELEALPK; REGION 1..10: note = epitope) [compound 1793]
epitope sequence binding to IgE antibody, rank (Key/Preferably/More preferably) (serum of patient P9 (WDEIA)): Key

1613 (YNPD; REGION 1..4: note = epitope) [compound 1613]
Rank of partial sequence as epitope binding to IgE antibody (serum of patient P15 (WDEIA), sequence without X): Key

1841 (YTVRTLQ; REGION 1..7: note = epitope) [compound 1841]
epitope sequence binding to IgE antibody, rank (Key/Preferably/More preferably) (serum of patient P8 (WDEIA)): Preferably

1715 (KEAA; REGION 1..4: note = epitope) [compound 1715]
epitope sequence binding to IgE antibody, rank (Key/Preferably/More preferably) (serum of patient P35 (WDEIA)): Key

2542 (SSQVSF; REGION 1..6: note = epitope) [compound 2542]
Epitope sequence binding to IgE antibody, rank of the sequence (serum of patient G7 (adult, general immediate type allergy to wheat), partial sequence): Key

1683 (YNPDKVPF; REGION 1..8: note = epitope) [compound 1683]
Rank of partial sequence as epitope binding to IgE antibody (serum of patient G9 (adult, general immediate type allergy to wheat), sequence without X): Key

2401 (VTEIV; REGION 1..5: note = epitope) [compound 2401]
Epitope sequence binding to IgE antibody, rank of the sequence (Key/Preferably/More preferably) [7]: Preferably

1581 (PFPQTQQPQ; REGION 1..9: note = epitope) [compound 1581]
Rank of partial sequence as epitope binding to IgE antibody [3]: More preferably

1243 (PQQPP; REGION 1..5: note = epitope) [compound 1243]
Epitope sequence binding to IgE antibody, rank of the sequence [4]: Key

1906 (QFPGQQQ; REGION 1..7: note = epitope) [compound 1906]
epitope sequence binding to IgE antibody, rank (Key/Preferably/More preferably) (serum of patient P4 (WDEIA)): Key

1965 (QQFPGQQ; REGION 1..7: note = epitope) [compound 1965]
epitope sequence binding to IgE antibody, rank (Key/Preferably/More preferably) (serum of patient P33 (WDEIA)): Preferably

1250 (PQQPP; REGION 1..5: note = epitope) [compound 1250]
Epitope sequence binding to IgE antibody, rank of the sequence [6]: Key

2256 (LRGIRN; REGION 1..6: note = epitope) [compound 2256]
Epitope sequence binding to IgE antibody, rank of the sequence (Key/Preferably/More preferably) [2]: Key

1445 (YLQPQ; REGION 1..5: note = epitope) [compound 1445]
Rank of partial sequence as epitope binding to IgE antibody [5]: Key

1864 (TVRTLQR; REGION 1..7: note = epitope) [compound 1864]
epitope sequence binding to IgE antibody, rank (Key/Preferably/More preferably) (serum of patient P25 (WDEIA)): Key

1255 (PQQPPC; REGION 1..6: note = epitope) [compound 1255]
Epitope sequence binding to IgE antibody, rank of the sequence [7]: Preferably

1277 (LPRS; REGION 1..4: note = epitope) [compound 1277]
Epitope sequence binding to IgE antibody, rank of the sequence (serum of patient P29 (WDEIA), sequence without X): Key

1605 (AQLEAIRS; REGION 1..8: note = epitope) [compound 1605]
Rank of partial sequence as epitope binding to IgE antibody (serum of patient P10 (WDEIA), sequence without X): More preferably

2548 (QSTY; REGION 1..4: note = epitope) [compound 2548]
Epitope sequence binding to IgE antibody, rank of the sequence (serum of patient P2 (WDEIA), partial sequence): Key
